Here are results for 20 compounds from patent US10676504B2 (Colorado State University Research Foundation, priority 2015, dated 2020).

Data set [1] has as its target T1, HDAC3 (Homo sapiens, UniProt O15379).
T1 construct: The recombinant, full-length HDAC protein (BPS Biosciences) was incubated; purchased BPS Biosciences
As to the kind of experiment: HDAC biochemical assay of P5-P12 (Table P1).

The target in data set [2] is HDAC1 (Homo sapiens, UniProt Q13547). Nature of the data set: HDAC biochemical assay of P5-P12 (Table P1). Also on record: The recombinant, full-length HDAC protein (BPS Biosciences) was incubated; purchased BPS Biosciences.
The target of data set [3] is T2, HDAC2 (Homo sapiens, UniProt Q92769). Nature of the data set: HDAC biochemical assay of P5-P12 (Table P1). Also on record: The recombinant, full-length HDAC protein (BPS Biosciences) was incubated; purchased BPS Biosciences.
For data set [4], the system named is NCI-60 cancer cell lines. Nature of the data set: cells.
Text: (§1) All compounds submitted for screening were initially tested at a single high dose (10^-5 M) against the fill NCI 60 cell panel. Only compounds which satisfied pre-determined threshold inhibition criteria in a minimum number of cell lines progressed to a second round of testing utilizing a more comprehensive 5-dose inhibition assay. The threshold inhibition criteria for progression to the 5-dose assays were selected to efficiently capture compounds with anti-proliferative activity based on historical DTP screening data.
(§2) Concentrations for G150, IC50, TGI, and LC50 were calculated for all cell lines tested, and heat plots were prepared.
In data set [5] the test system is HDACs 1-3. Nature of the data set: HDAC biochemical assay of P5-P12, summary statements.
The test system of data set [6] is NCI-60 cancer cell lines. To be noted: five-dose.
Text: as §1, §2
In data set [7] the test system is colon cancer cell lines.
Text: as §1, §2
The subject of data set [8] is renal cancer cell lines.
The test system of data set [9] is colon cancer cell lines. Nature of the data set: cells. To be noted: read-out: Average Concentration (M), LC50, Colon.
Text: as §1, §2
The subject of data set [10] is melanoma cell lines. As to the kind of experiment: cells. The conditions noted are these: read-out: Average Concentration (M), LC50, Melanoma.
Text: as §1, §2
In data set [11] the target is T3, HDAC3/NCor2 (Homo sapiens, UniProt O15379).
T3 construct: recombinant, full-length HDAC protein; purchased BPS Biosciences
Nature of the data set: HDAC biochemical assay (Example 16).
Experimental: Thus, small-molecule inhibitors were arrayed at twelve-point dose-response (3-fold increments) in 384-well library plates and transferred by robotic pin device to replicate assay plates containing assay buffer under reducing conditions (TCEP 200 μM). A liquid handling device then transferred a tripeptide substrate terminating in acetyl-lysine and amide conjugated to 4-methyl-7-aminocoumarin (AMC), recombinant human histone deacetylase (BPS Bioscience, San Diego, Calif.), and recombinant human trypsin (Sigma-Aldrich, St. Louis, Mo.). Following deacetylase hydrolysis of acetyl-lysine, trypsin cleavage liberated the AMC fluorophore. Kinetic (fluorescence per unit time) and end-point (total fluorescence) data were captured by a multilabel plate reader. Replicate data were analyzed by curve-fit using logistic regression (Spotfire Decision-Site).

Data set [12] has as its target T2, HDAC2. As to the kind of experiment: HDAC2 inhibition, trypsin-coupled kinetic fluorescence homogeneous assay (Example 10). The class given is biochemical. Further details: The recombinant, full-length HDAC protein (BPS Biosciences) was incubated; purchased BPS Biosciences. To be noted: Conc (uM); logistic curve fit of activity versus concentration; some fits reached max iterations; read-out: X50.
Experimental: To measure the inhibitory effect on deacetylase function in vitro, a continuous kinetic biochemical assay miniaturized to 384-well plate format was optimized.
Fluorescence measurements were obtained in real-time on a Varioskan microtiter plate reader (Thermo).
A biochemical study of HDAC2 inhibition was carried out using the trypsin-coupled, kinetic fluorescence homogeneous assay described above.

Setting [13] is: read-out: GI50 concentrations (M), order of magnitude.

Read-outs that look alike come from different tables or passages of the source.

Sequence of HDAC1 (Q13547 whole entry): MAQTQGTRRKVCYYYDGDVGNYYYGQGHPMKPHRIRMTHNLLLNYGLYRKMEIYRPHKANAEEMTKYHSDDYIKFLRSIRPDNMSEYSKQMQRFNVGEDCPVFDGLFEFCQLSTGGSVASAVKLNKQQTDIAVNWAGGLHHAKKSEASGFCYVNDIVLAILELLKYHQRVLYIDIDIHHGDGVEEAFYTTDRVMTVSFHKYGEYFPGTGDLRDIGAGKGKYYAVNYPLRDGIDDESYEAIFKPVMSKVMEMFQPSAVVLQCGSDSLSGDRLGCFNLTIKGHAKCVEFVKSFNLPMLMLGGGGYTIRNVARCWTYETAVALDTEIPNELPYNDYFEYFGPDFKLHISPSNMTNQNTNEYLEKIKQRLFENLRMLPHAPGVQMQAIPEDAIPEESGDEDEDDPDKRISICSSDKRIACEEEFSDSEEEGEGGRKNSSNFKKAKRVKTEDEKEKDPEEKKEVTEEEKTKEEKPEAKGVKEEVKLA
T2 sequence (Q92769 whole entry): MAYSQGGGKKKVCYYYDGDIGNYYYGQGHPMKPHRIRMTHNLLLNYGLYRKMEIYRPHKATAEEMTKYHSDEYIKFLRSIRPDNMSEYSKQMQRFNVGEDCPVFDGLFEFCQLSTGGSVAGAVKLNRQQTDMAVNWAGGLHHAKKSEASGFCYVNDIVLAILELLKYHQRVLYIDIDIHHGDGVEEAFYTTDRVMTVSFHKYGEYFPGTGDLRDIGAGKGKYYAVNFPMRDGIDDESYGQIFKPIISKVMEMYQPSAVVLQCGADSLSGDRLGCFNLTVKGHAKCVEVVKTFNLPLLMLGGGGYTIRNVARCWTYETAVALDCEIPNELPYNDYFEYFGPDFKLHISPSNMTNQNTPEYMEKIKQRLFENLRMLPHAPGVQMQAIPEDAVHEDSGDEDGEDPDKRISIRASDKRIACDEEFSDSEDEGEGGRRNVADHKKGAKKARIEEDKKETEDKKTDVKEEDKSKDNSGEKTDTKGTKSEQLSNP
T1 sequence (O15379 whole entry): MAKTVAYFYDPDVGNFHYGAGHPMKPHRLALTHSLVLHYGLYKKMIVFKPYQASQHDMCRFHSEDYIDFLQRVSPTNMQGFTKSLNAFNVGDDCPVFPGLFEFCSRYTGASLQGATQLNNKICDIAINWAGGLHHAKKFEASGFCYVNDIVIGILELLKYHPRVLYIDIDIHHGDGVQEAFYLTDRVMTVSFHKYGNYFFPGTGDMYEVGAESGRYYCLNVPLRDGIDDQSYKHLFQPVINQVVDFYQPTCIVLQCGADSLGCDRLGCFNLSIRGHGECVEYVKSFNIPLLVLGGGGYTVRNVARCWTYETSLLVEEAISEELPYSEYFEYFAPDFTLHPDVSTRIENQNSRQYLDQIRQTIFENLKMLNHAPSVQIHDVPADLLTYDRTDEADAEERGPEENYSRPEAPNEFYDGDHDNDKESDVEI
T1 sequence (Q9Y618 395-489 partner limits assumed): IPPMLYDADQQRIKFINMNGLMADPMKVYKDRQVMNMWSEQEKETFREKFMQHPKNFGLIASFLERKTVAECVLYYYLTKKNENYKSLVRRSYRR
T3 sequence (O15379 whole entry): as the sequence (O15379 whole entry) above
T3 sequence (Q9Y618 395-489 partner limits assumed): as the sequence (Q9Y618 395-489 partner limits assumed) above

Take `CCCCCCCC(=O)SCC/C=C/[C@@H]1CC(=O)NCc2nc(cs2)C2=N[C@@](C)(CS2)C(=O)N[C@@H](C(C)C)C(=O)N1` [Largazole peptide isostere]: the IC50 was found to be 1150 nM in data set [1], 544 nM in data set [2] and 825 nM in data set [3].
Take `CCCCCCCC(=O)SCCC=CC1CC(=O)NCc2cccc(n2)C2=NC(C)(CS2)C(=O)NC(C(C)C)C(=O)O1` (centres unmarked) [Compound P5, Depsipeptide Pyridyl “IN”]: the IC50 in data set [1] (Table P1) turned out to be 332 nM; in data set [2] (Table P1) it was 204 nM; in data set [3] (Table P1), 350 nM.
As to `CC(C)[C@@H]1NC(=O)[C@]2(C)CSC(=N2)c2ccnc(c2)CNC(=O)C[C@@H](/C=C/CCSC(c2ccccc2)(c2ccccc2)c2ccccc2)NC1=O`, the ring closure, yield of all isomers (from COC(=O)C[C@@H](/C=C/CCSC(c1ccccc1)(c1ccccc1)c1ccccc1)NC(=O)[C@@H](NC(=O)[C@]1(C)CSC(c2ccnc(CNC(=O)OC(C)(C)C)c2)=N1)C(C)C, amide bond, HATU/HOBt/DIPEA, acetonitrile, 0.97 mM, 3 steps) was 32%.
In the case of `CCCCCCCC(=O)SCC/C=C/[C@@H]1CC(=O)NCc2nc(cs2)C2=N[C@@](C)(CS2)C(=O)N[C@@H](C(C)C)C(=O)N1` [drawing 78], in [4] (setting [13]), the GI50 is 1e-07 M.
On to `CCCCCCCC(=O)SCC/C=C/[C@@H]1CC(=O)NCc2cc(ccn2)C2=N[C@@](C)(CS2)C(=O)N[C@@H](C(C)C)C(=O)N1` [Compound P11, Peptide Isostere Pyridyl “OUT”], for which the IC50 in [1] (Table P1) was determined as 846 nM; in data set [2] (Table P1), 817 nM; in data set [3] (Table P1) it was 1240 nM. In data set [5], the “IC50 range in words for HDACs 1-3” value was “high nM-μM range”.
Consider `CCCCCCCC(=O)SCC/C=C/[C@@H]1CC(=O)NCc2cccc(n2)C2=N[C@@](C)(CS2)C(=O)N[C@@H](C(C)C)C(=O)O1` [compound of formula bb], for which the “Percent of Cell Lines Impacted (%), GI50” value in data set [6] (50% Growth Inhibition) is 100%. In addition, in data set [6] (50% Lethal Concentration reached), the “Percent of Cell Lines Impacted (%), LC50” value was 12%. Also, in [6] (Total Growth Inhibition), the “Percent of Cell Lines Impacted (%), TGI” value was 47% and the “Total Impacted Cell Lines (n), TGI” value turned out to be 27. In data set [7], the “Total Impacted Cell Lines (n), LC50, Colon” value is 2. In addition, the “Percent of Cell Lines Impacted (%), LC50, Colon” value in data set [7] (five-dose) is 29%. Further, in data set [8], the “Total Impacted Cell Lines (n), LC50, Renal” value is given as 2. In addition, the “Percent of Cell Lines Impacted (%), LC50, Renal” value in data set [8] (five-dose) worked out at 25%. The GI50 in [4] (read-out: Average Concentration (M), GI50) worked out at 7.62e-08 M. Besides, the CC50 in [9] was 1.29e-05 M. Also, the CC50 in data set [10] came out at 7.01e-07 M.
As for `CC(C)[C@@H]1NC(=O)[C@]2(C)CSC(=N2)c2csc(n2)CNC(=O)C[C@@H](/C=C/CCCC(=O)Nc2ccccc2N)OC1=O` [Benzamide (12b)], the IC50 in data set [11] was 14000 nM.
Take `CC(C)[C@@H]1NC(=O)[C@]2(C)CSC(=N2)c2csc(n2)CNC(=O)C[C@@H](/C=C/CCCCS)OC1=O` [ab6_162alr1 n + 2 thiol]: in [12], the IC50 was 0.0785 µM.
Turning to `CCCCCCCC(=O)SCCC=CC1CC(=O)NCc2cc(ccn2)C2=NC(C)(CS2)C(=O)NC(C(C)C)C(=O)O1` (centres unmarked) [Compound P7, Depsipeptide Pyridyl “OUT”], the IC50 in data set [1] (Table P1) is 320 nM; in [2] (Table P1), 340 nM; in data set [3] (Table P1), 655 nM.
In turn, `CC(C)[C@@H]1NC(=O)[C@@]2(C)CSC(=N2)c2csc(n2)CNC(=O)C[C@H](/C=C/CCSC(c2ccccc2)(c2ccccc2)c2ccccc2)OC1=O` gave a ring closure, yield of all isomers (from CC(C)[C@H](NC(=O)[C@@]1(C)CSC(c2csc(CNC(=O)OC(C)(C)C)n2)=N1)C(=O)O[C@@H](/C=C/CCSC(c1ccccc1)(c1ccccc1)c1ccccc1)CC(=O)OCC[Si](C)(C)C, amide bond, 2 steps) of 87%.
For `CCCCCCCC(=O)SCCC=CC1CC(=O)NCc2cccc(n2)C2=NC(C)(CS2)C(=O)NC(C(C)C)C(=O)N1` (centres unmarked) [Compound P9, Peptide Isostere Pyridyl “IN”], the IC50 in data set [1] (Table P1) was found to be 332 nM; in data set [2] (Table P1), 340 nM; in [3] (Table P1), 472 nM.
For `CC(C)[C@@H]1NC(=O)[C@]2(C)CSC(=N2)c2cccc(n2)CNC(=O)C[C@@H](/C=C/CCSC(c2ccccc2)(c2ccccc2)c2ccccc2)OC1=O`, the ring closure, yield of all isomers (from CC(C)[C@H](NC(=O)[C@]1(C)CSC(c2cccc(CNC(=O)OC(C)(C)C)n2)=N1)C(=O)O[C@H](/C=C/CCSC(c1ccccc1)(c1ccccc1)c1ccccc1)CC(=O)OCC[Si](C)(C)C, amide bond, HATU, acetonitrile, 0.96 mM, 18.0 h, 2 steps) was 20%.
Under “from CC(C)[C@H](NC(=O)[C@]1(C)CSC(c2coc(CNC(=O)OC(C)(C)C)n2)=N1)C(=O)O[C@H](/C=C/CCSC(c1ccccc1)(c1ccccc1)c1ccccc1)CC(=O)OCC[Si](C)(C)C, amide bond, T3P, DCM, 0.99 mM, 2 steps”, `CC(C)[C@@H]1NC(=O)[C@]2(C)CSC(=N2)c2coc(n2)CNC(=O)C[C@@H](/C=C/CCSC(c2ccccc2)(c2ccccc2)c2ccccc2)OC1=O` gave a ring closure, yield of all isomers of 35%.
Consider `C[C@@]12CSC(=N1)c1csc(n1)CNC(=O)C[C@@H](/C=C/CCSC(c1ccccc1)(c1ccccc1)c1ccccc1)OC(=O)[C@@H]1CCCN1C2=O`, for which, for the setting “from CC(C)(C)OC(=O)NCc1nc(C2=N[C@](C)(C(=O)N3CCC[C@H]3C(=O)O[C@H](/C=C/CCSC(c3ccccc3)(c3ccccc3)c3ccccc3)CC(=O)OCC[Si](C)(C)C)CS2)cs1, amide bond, HATU/iPr2NEt, MeCN, 0.83 mM, 2 steps”, the ring closure, yield of all isomers is 43%.
`CC(C)[C@@H]1NC(=O)[C@]2(C)CSC(=N2)c2cccc(n2)CNC(=O)C[C@@H](/C=C/CCSC(c2ccccc2)(c2ccccc2)c2ccccc2)NC1=O` returned a ring closure, yield of all isomers (from COC(=O)C[C@@H](/C=C/CCSC(c1ccccc1)(c1ccccc1)c1ccccc1)NC(=O)[C@@H](NC(=O)[C@]1(C)CSC(c2cccc(CNC(=O)OC(C)(C)C)n2)=N1)C(C)C, amide bond, HATU/HOBt/DIPEA, acetonitrile, 0.97 mM, 3 steps) of 33%.
For `CC(C)[C@@H]1NC(=O)[C@]2(C)CSC(=N2)c2cccc(n2)CNC(=O)C[C@@H](/C=C/CCS)NC1=O` [Compound P10, Peptide Isostere Pyridyl “IN” Thiol], the IC50 in [1] (Table P1) amounted to 42.5 nM; in data set [2] (Table P1), 42 nM; in [3] (Table P1) it was 69.8 nM. Besides, the “IC50 range in words for HDACs 1-3” value in data set [5] was “double-digit nM range”.
On to `CC(=O)N[C@@H](CC(C)C)C(=O)N[C@@H](CC(C)C)C(=O)N[C@H](C=O)CCCNC(=N)N` [Leupeptin, reference compound], for which the IC50 in [12] stood at 0.308 µM.
Compound `CC(C)[C@@H]1NC(=O)[C@]2(C)CSC(=N2)c2ccnc(c2)CNC(=O)C[C@@H](/C=C/CCSC(c2ccccc2)(c2ccccc2)c2ccccc2)OC1=O` returned a ring closure, yield of all isomers (from CC(C)[C@H](NC(=O)[C@]1(C)CSC(c2ccnc(CNC(=O)OC(C)(C)C)c2)=N1)C(=O)O[C@H](/C=C/CCSC(c1ccccc1)(c1ccccc1)c1ccccc1)CC(=O)OCC[Si](C)(C)C, amide bond, HATU/HOBt/DIPEA, acetonitrile, 1.0 mM, 18.0 h, 2 steps) of 23%.
As to `CC(C)[C@@H]1NC(=O)[C@]2(C)CSC(=N2)c2csc(n2)CNC(=O)C[C@@H](/C=C/CCSC(c2ccccc2)(c2ccccc2)c2ccccc2)NC1=O`, under “from COC(=O)C[C@@H](/C=C/CCSC(c1ccccc1)(c1ccccc1)c1ccccc1)NC(=O)[C@@H](NC(=O)[C@]1(C)CSC(c2csc(CNC(=O)OC(C)(C)C)n2)=N1)C(C)C, amide bond, HATU/iPr2NEt, MeCN, 0.96 mM, 3 steps”, the ring closure, yield of all isomers was 50%.
Turning to `CCCCCCCC(=O)SCC/C=C/[C@@H]1CC(=O)NCc2cccc(n2)C2=N[C@@](C)(CS2)C(=O)N[C@@H](C(C)C)C(=O)O1` [drawing 79], the GI50 in data set [4] (setting [13]) worked out at 1e-08 M.
